Experiment [1] addresses T1, Protein farnesyltransferase (Homo sapiens, UniProt P49354+P49356). Briefly: Inhibition of recombinant human farnesyltransferase using Dansyl-GCVLS as substrate measured for 15 mins by fluorimetric analysis. The class given is protein-complex assay.
For experiment [2], the target named is T1, Protein farnesyltransferase. Briefly: Inhibition of recombinant human farnesyltransferase using Dansyl-GCVLS as substrate at 100 uM measured for 15 mins by fluorimetric analysis relative to control. The class given is protein-complex assay.

Turning to `CCOC(=O)/C(C#N)=C/[C-](C(=O)c1cc(OC)c(OC)c(OC)c1)[n+]1cc(C)cc(C)c1`, the IC50 in experiment [1] is 43.5 µM. Also, the inhibition in experiment [2] was found to be 90%.

Turning to `COc1ccc(C(=O)[C-](C=C(C#N)C#N)[n+]2ccc(N(C)C)cc2)cc1`, the IC50 in experiment [1] came to 22.2 µM. Moreover, the inhibition in experiment [2] was found to be 99%.

For the molecule `COc1cc(C(=O)[C-](C=C(C#N)C#N)[n+]2ccc(N(C)C)cc2)cc(OC)c1OC`, the half-inhibitory concentration (IC50) in experiment [1] amounted to 15.6 µM. The inhibition in experiment [2] came to 93%.

For `CN(C)c1cc[n+]([C-](C=C(C#N)C#N)C(=O)c2ccc([N+](=O)[O-])cc2)cc1`, the half-inhibitory concentration (IC50) in experiment [1] came to 28.2 µM. Moreover, the inhibition in experiment [2] was 88%.

`CN(C)c1cc[n+]([C-](C=C(C#N)C#N)C(=O)c2ccc(C#N)cc2)cc1`: in experiment [1], the IC50 was found to be 23.9 µM. Also, in experiment [2], the inhibition was found to be 77%.

Consider `CCOC(=O)/C(C#N)=C/[C-](C(=O)c1ccc(OC)c(OC)c1)[n+]1ccc(OC)cc1`, for which, in experiment [1], the IC50 stood at 20.8 µM. Besides, the inhibition in experiment [2] was 88%.

With `Cc1ccc(C(=O)[C-](C=C(C#N)C#N)[n+]2ccc(N(C)C)cc2)cc1`, the IC50 in experiment [1] amounted to 14.5 µM. Further, in experiment [2], the inhibition is 89%.

Consider `COc1ccc(C(=O)[C-](C=C(C#N)C#N)[n+]2ccc(OC)cc2)cc1`, for which the IC50 in experiment [1] was found to be 27.3 µM. In addition, the inhibition in experiment [2] came out at 83%.

`CN(C)c1cc[n+]([C-](C=C(C#N)C#N)C(=O)c2ccc(Br)cc2)cc1`: the IC50 in experiment [1] stood at 19.7 µM. In addition, the inhibition in experiment [2] was 91%.

With `CN(C)c1cc[n+]([C-](C=C(C#N)C#N)C(=O)c2ccc(Cl)cc2)cc1`, in experiment [1], the IC50 stood at 12.5 µM. The inhibition in experiment [2] is 95%.

Regarding `CCOC(=O)/C(C#N)=C/[C-](C(=O)c1ccc2c(c1)NC(=O)CO2)[n+]1ccc(N(C)C)cc1`, the IC50 in experiment [1] is 55.2 µM. The inhibition in experiment [2] came out at 62%.

Regarding `CN(C)c1cc[n+]([C-](C=C(C#N)C#N)C(=O)c2ccc(F)cc2)cc1`, the IC50 in experiment [1] came out at 23.6 µM. In addition, the inhibition in experiment [2] is 81%.

With `CCOC(=O)/C(C#N)=C/[C-](C(=O)c1ccc(OC)cc1)[n+]1ccc(OC)cc1`, in experiment [2], the inhibition was found to be 51%.

Consider `CCOC(=O)/C(C#N)=C/[C-](C(=O)c1cc(OC)c(OC)c(OC)c1)[n+]1ccc(N(C)C)cc1`, for which the IC50 in experiment [1] turned out to be 48 µM. The inhibition in experiment [2] worked out at 73%.

`CCOC(=O)/C(C#N)=C/[C-](C(=O)c1ccc(Cl)cc1)[n+]1ccc(N(C)C)cc1`: the IC50 in experiment [1] amounted to 31.9 µM. For the same molecule, the inhibition in experiment [2] came out at 100%.

Regarding `CCOC(=O)/C(C#N)=C/[C-](C(=O)c1ccc(OC)cc1)[n+]1ccc(N(C)C)cc1`, the IC50 in experiment [1] worked out at 62.7 µM. For the same molecule, the inhibition in experiment [2] worked out at 64%.

For `CCOC(=O)/C(C#N)=C/[C-](C(=O)c1ccc(C#N)cc1)[n+]1ccc(N(C)C)cc1`, the IC50 in experiment [1] was 46.2 µM. In addition, the inhibition in experiment [2] amounted to 69%.

On to `CCOC(=O)/C(C#N)=C/[C-](C(=O)c1ccc(F)cc1)[n+]1ccc(N(C)C)cc1`, for which, in experiment [1], the IC50 stood at 62.3 µM. The inhibition in experiment [2] stood at 64%.

On to `COc1cc[n+]([C-](C=C(C#N)C#N)C(=O)c2ccc(OC)c(OC)c2)cc1`, for which the IC50 in experiment [1] worked out at 31.4 µM. In experiment [2], the inhibition amounted to 77%.

In the case of `CN(C)c1cc[n+]([C-](C=C(C#N)C#N)C(=O)c2ccccc2)cc1`, in experiment [1], the IC50 stood at 46.2 µM. Moreover, the inhibition in experiment [2] was 79%.

With `CCOC(=O)/C(C#N)=C/[C-](C(=O)c1ccc(OC)cc1)[n+]1cc(C)cc(C)c1`, the inhibition in experiment [2] is 49%.

On to `CN(C)c1cc[n+]([C-](C=C(C#N)C#N)C(=O)N2c3ccccc3Sc3ccccc32)cc1`, for which, in experiment [1], the IC50 was 4.67 µM.

In the case of `CCOC(=O)/C(C#N)=C/[C-](C(=O)c1ccc(Br)cc1)[n+]1ccc(N(C)C)cc1`, the IC50 in experiment [1] is 36.4 µM. The inhibition in experiment [2] was determined as 100%.

As to `COc1ccc(C(=O)[C-](C=C(C#N)C#N)[n+]2cc(C)cc(C)c2)cc1`, the IC50 in experiment [1] amounted to 27.4 µM. Moreover, in experiment [2], the inhibition was found to be 75%.

Take `Cc1cc[n+]([C-](C=C(C#N)C#N)C(=O)c2ccccc2)cc1`: the inhibition in experiment [2] turned out to be 29%.

Regarding `CCOC(=O)/C(C#N)=C/[C-](C(=O)c1ccc(C)cc1)[n+]1ccc(N(C)C)cc1`, in experiment [1], the IC50 was found to be 43.6 µM. In experiment [2], the inhibition was determined as 65%.

In the case of `COc1cc(C(=O)[C-](C=C(C#N)C#N)[n+]2cc(C)cc(C)c2)cc(OC)c1OC`, the IC50 in experiment [1] stood at 20.1 µM. The inhibition in experiment [2] worked out at 82%.

As for `CN(C)c1cc[n+]([C-](C=C(C#N)C#N)C(=O)c2ccc3c(c2)NC(=O)CO3)cc1`, the IC50 in experiment [1] amounted to 25.8 µM. In experiment [2], the inhibition came to 92%.

Take `CCOC(=O)/C(C#N)=C/[C-](C(=O)c1ccccc1)[n+]1ccc(N(C)C)cc1`: the IC50 in experiment [1] was 30.9 µM. For the same molecule, in experiment [2], the inhibition was determined as 68%.

For `CCOC(=O)/C(C#N)=C/[C-](C(=O)c1ccccc1)[n+]1ccc(C)cc1`, the inhibition in experiment [2] was found to be 45%.

The IC50 is the concentration that gives 50% inhibition. As usually defined, the inhibition is the relative decrease from the control value, in per cent.

These data come from ChEMBL document CHEMBL2434887, “Synthesis and biological evaluation of a new series of N-ylides as protein farnesyltransferase inhibitors” (Bioorg Med Chem Lett, 2013).
